# Results taken from patent US10881749B2, “Probes and methods of imaging a bacterial infection” (The Board of Trustees of the Leland Stanford Junior …, priority 2015, dated 2021).
# Key:
# E. coli [1] = experiment: PET/CT imaging of E. coli infection in thigh muscle of nude mice; format: in vivo; details: for route of clearance: mice, intravenous (tail vein)
# Procedure: FIGS. 1.1A-B show PET/CT scan of a mouse that had been injected with 200 μCi of 6″-[^18F]-fluoromaltotriose. The arrow indicates the site of infection.
# (§1) 6″-[^18F]-fluoromaltotriose (FIG. 1.1B) was synthesized. The uptake of 6″-[^18F]-fluoromaltotriose was evaluated in E. coli. […] The uptake in E. coli could also be blocked by a co-incubation with 1 mM of cold maltose (98% blocking, p<0.0003), the natural substrate of the transporter, confirming that the tracer was a substrate of the bacterial maltose transporter. 10^8 colony-forming units (CFU) of E. coli was then inoculated in the right thigh muscle of nude mice (n=4). […] The route of clearance of the tracer is renal which makes it suitable for clinical translation.
# E. coli [2] = experiment: Uptake of tracer in E. coli bacterial culture, with maltose competition; format: cell-based, Escherichia coli; details: for blocking of uptake in E. coli by co-incubation with cold maltose: co-incubation with 1 mM of cold maltose, p<0.0003; for accumulation (uptake) of tracer in E. coli over time: in vitro bacterial culture
# Procedure: FIG. 2.1 is a graph showing uptake of 6″-[^18F]fluoromaltotriose in vitro in E coli at 15 minutes, 30 minutes, and 30 minutes with 1 mM of maltose.
# as §1, with “(n=4). 24 h later, 200 uCi of the 6″-[^18F]-fluoromaltotriose was administered via tail vein and dynamic PET/CT scans were obtained over the course of one hour.” for “(n=4).”
# In regard to FIG. 5.1A, 6″-[^18F]fluoromaltotriose was synthesized from precursor per-O-acetyl-6″-deoxy-6″-nosyl-maltotriose (1). Precursor 1 was prepared from per-O-acetyl-6″-hydroxymaltotriose via a nosylation reaction. This method utilizes the reaction between the leaving group nosylate in precursor 1 and anhydrous [^18F]KF/Kryptofix 2.2.2 in acetonitrile at 85° C. for 15 min to give per-O-acetyl-6″-deoxy-6″-[^18F]fluoromaltotriose (2). Basic hydrolysis of the acetyl protecting groups in 2 yielded 6″-[^18F]fluoromaltotriose (3). Also, cold 6″-fluoromaltotriose (for comparison with 6″ [^18F]fluoromatotriose) was prepared from per-O-acetyl-6-hydroxymaltotriose via a DAST reaction followed by a basic hydrolysis. Escherichia-coli uptake of 6″-[^18F]fluoromaltotriose was evaluated in bacterial culture.
# We have successfully synthesized 6″-[^18F]fluoromaltotriose in 4-7% radiochemical yield (decay corrected) with 95% chemical and radio-chemical purities. Total synthesis time was 125 min. […] This observation is consistent with 6″-[^18F]fluoromaltotriose being recognized and transported by the bacteria in a manner similar to maltose.
# [3] = Biodistribution and pharmacokinetics in mice; format: in vivo; details: FIG. 3.1
# Description: FIG. 3.1 illustrates a graph comparing the biodistribution and pharmacokinetics of 6-fluoromaltose and 6″-fluoromaltotriose in mice.
# FIG. 3.1, example 3, illustrates a graph comparing the biodistribution and pharmacokinetics of 6-fluoromaltose and 6″-Fluoromaltotriose in mice.
# [4] = listed as 6″-[^18F]fluoromaltotriose
smiles,measurement,setting,value
"OC[C@H]1O[C@H](O[C@H]2[C@H](O)[C@@H](O)C(O)O[C@@H]2CO)[C@H](O)[C@@H](O)[C@@H]1O[C@H]1O[C@H](C[18F])[C@@H](O)[C@H](O)[C@H]1O (some centres unmarked) [6″-[^18F]-fluoromaltotriose, 6″-[^18F]fluoromaltotriose]",imaging of viable bacteria,E. coli [1]; 2 hours after implantation (FIG. 1.2),can image 10^8 CFU of viable bacteria
same,accumulation of tracer at the site of infection (PET/CT image),"E. coli [1]; PET/CT image at 1 hour, 24 h after inoculation",clearly accumulated in the infected leg
same,uptake in infected muscle relative to contra-lateral muscle,"E. coli [1]; ROI analysis, PET/CT, p<0.05",3.1 fold
same,route of clearance,E. coli [1],renal
same,route of clearance,E. coli [1]; [4],predominantly renal clearance
same,average uptake in infected muscle (ROI analysis),"E. coli [1]; nude mice, 10^8 CFU E. coli in right thigh muscle, 24 h later 200 uCi via tail vein, PET/CT at 1 hour, mean±SD",4.7±1.3 % ID/g
same,blocking of uptake in E. coli by co-incubation with cold maltose,E. coli [2],98%
same,blocking of uptake in E. coli by co-incubation with cold maltose,E. coli [2]; [4],90%
same,accumulation (uptake) of tracer in E. coli over time,E. coli [2],increased over time
same,accumulation (uptake) of tracer in E. coli over time,E. coli [2]; listed as 6″-[^19F]fluoromaltotriose,time dependent
same,tissue uptake as compared to first generation tracer 6-fluoromaltose,[3],"reduced blood, heart, liver, lung and muscle uptake"
